Data published in patent publication US9451775B2, “Heterocyclic compounds as pesticides” (Bayer Intellectual Property GmbH, priority 2008, dated 2016).
Where two headings read alike, the source gives them in different places.

Experiments:
[1] = system: green peach aphid (Myzus persicae); experiment: Myzus test (spray treatment); type: in vivo; details: foliar, read-out: activity (effect in %, aphids killed)
Method in brief: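 Chinese cabbage leaf discs heavily infested with all stages of the aphid are sprayed with compound formulated in acetone/dimethylformamide with alkylaryl polyglycol ether emulsifier, diluted in emulsifier-containing water. After a set period, kill is scored in %: 100% all aphids dead, 0% none.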

Boophilus microplus = Boophilus microplus test (injection); type: in vivo; details: application rate of 20 μg/animal; injected into the abdomen
Experimental: Boophilus microplus Test (Injection) • Solvent: Dimethyl sulphoxide To produce a suitable preparation of active compound, 1 part by weight of active compound is mixed with the stated amounts of solvent, and the concentrate is diluted with water to the desired concentration. The solution of active compound is injected into the abdomen (Boophilus microplus), and the animals are transferred into dishes and stored in a climatized room. The activity is checked by examination for deposition of fertile eggs, After the desired period of time, the effect in % is determined. 100% means that none of the ticks has laid fertile eggs.

[2] = logP determination by HPLC (formic acid method); type: physicochemical; details: reversed-phase HPLC column (C18), read-out: logP (HCOOH)
Method in brief: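 Reversed-phase C18 HPLC at 55 °C, pH 3.4, with a 4.25 min gradient from 10% to 95% acetonitrile (formic acid-modified water/acetonitrile phases). logP was derived from retention time by linear interpolation between unbranched alkan-2-ones (C3-C16) of known logP.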

[3] = system: greenhouse red spidermite (Tetranychus urticae); experiment: Tetranychus test, OP-resistant (spray treatment); type: in vivo; details: application rate of 100 g/ha; sprayed bean leaf discs
Experimental: Tetranychus Test, OP-Resistant (Spray Treatment)
• Solvents: 78.0 parts by weight of acetone • 1.5 parts by weight of dimethylformamide • Emulsifier: 0.5 part by weight of alkylaryl polyglycol ether
To produce a suitable preparation of active compound, 1 part by weight of active compound is mixed with the stated amounts of solvent and emulsifier, and the concentrate is diluted with emulsifier-containing water to the desired concentration.
Discs of the leaves of beans (Phaseolus vulgaris) which are infested by all stages of the greenhouse red spidermite (Tetranychus urticae) are sprayed with an active compound preparation of the desired concentration.
After the desired period of time, the effect in % is determined. 100% means that all spidermites have been killed; 0% means that none of the spidermites have been killed.

[4] = application rate of 500 g/ha, sprayed Chinese cabbage leaf discs
[5] = pH 3.4, HPLC on reversed-phase column (C18), acidic range (pH 3.4), 55° C.

## FC(F)(F)c1cccc(-c2cnc(-c3cccnc3)s2)n1 [Ex. No. 49]
[1]; [4]
  pest or weed control at 500 g/ha: ≥ 80%
Boophilus microplus
  activity (effect in %, deposition of fertile eggs): ≥ 80%
[2]; [5]
  chromatographic logP: 2.81

## Cc1nc(-c2cccnc2)sc1-c1ccn(Cc2ccccn2)n1 [Ex. No. 27]
[1]; [4]
  pest or weed control at 500 g/ha: ≥ 80%
[2]; [5]
  chromatographic logP: 1.69
[3]
  activity (effect in %, spidermites killed): ≥ 80%

## Cc1nc(-c2cccnc2)sc1-c1nc(-c2cccnc2)no1 [compound 63]
[1]; [4]
  pest or weed control at 500 g/ha: ≥ 80%
[2]; [5]
  chromatographic logP: 2.51

## CCOCCCNC(=O)n1ccc(-c2sc(-c3cccnc3)nc2C)n1 [compound 123]
[1]; [4]
  pest or weed control at 500 g/ha: ≥ 80%
[2]; [5]
  chromatographic logP: 2.46

## Cc1nc(-c2cccnc2)sc1-c1cccc(C2=NOCCO2)c1 [compound 101]
[1]; [4]
  pest or weed control at 500 g/ha: ≥ 80%
[2]; [5]
  chromatographic logP: 2.42

## Cc1nc(-c2cccnc2)sc1-c1ccn(-c2cnccc2F)n1 [compound 82]
[1]; [4]
  pest or weed control at 500 g/ha: ≥ 80%
[2]; [5]
  chromatographic logP: 2.23

## Cc1nc(-c2cccnc2)sc1-c1cccc(-c2nccnn2)n1 [Preparation Example 4, 3-[6-(4-Methyl-2-pyridin-3-ylthiazol-5-yl)pyridin-2-yl]-[1,2,4]triazine]
[1]; in Brassica rapa
  pest or weed control at 500 g/ha: ≥ 80%
[2]; [5]
  chromatographic logP: 1.58
[2]; pH 3.4, values printed in the text of the preparation examples, formic acid method
  chromatographic logP: 1.58

## c1cncc(-c2ncc(-c3cccc(C4=NOCCO4)n3)s2)c1 [compound 148]
[1]; [4]
  pest or weed control at 500 g/ha: ≥ 80%
[2]; [5]
  chromatographic logP: 1.59

## COCCNC(=O)n1ccc(-c2sc(-c3cccnc3)nc2C)n1 [compound 126]
[1]; [4]
  pest or weed control at 500 g/ha: ≥ 80%
[2]; [5]
  chromatographic logP: 1.87

## Cc1nc(-c2cccnc2)sc1-n1ccc(C(F)(F)C(F)(F)F)n1 [Ex. No. 140]
[1]; application rate of 100 g/ha, sprayed Chinese cabbage leaf discs
  pest or weed control at 100 g/ha: ≥ 80%
[2]; [5]
  chromatographic logP: 3.31

## Cc1noc(Cn2ccc(-c3sc(-c4cccnc4)nc3C)n2)n1 [compound 145]
[1]; [4]
  pest or weed control at 500 g/ha: ≥ 80%
[2]; [5]
  chromatographic logP: 1.71

## Cc1nc(-c2cccnc2)sc1-n1ccc(-c2ccccc2)n1 [compound 28]
[1]; [4]
  pest or weed control at 500 g/ha: ≥ 80%
[2]; [5]
  chromatographic logP: 3.08

## Cc1nc(-c2cccnc2)sc1-c1cccc(-c2ccccc2Cl)n1 [compound 42]
[1]; [4]
  pest or weed control at 500 g/ha: ≥ 80%
[2]; [5]
  chromatographic logP: 3.97
